Type in all cases: biochemical
Experiment [1] concerns the target T1, recombinant human cathepsin S (Homo sapiens, UniProt P25774).
T1 construct: purchased Calbiochem 219343; host or cells: E. coli
Description: Cathepsin S kinetic fluorescence enzyme inhibition assay. Conditions: selectivity ratio versus calpain I. The method in brief: (§1)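 Kinetic fluorescence (ex 390/em 460 nm) at room temperature in 50 mM MES, 2 mM EDTA, 0.05% Brij 35, 2.5 mM L-cysteine, pH 6.0. Cathepsin B (liver, 0.25 nM) with 100 μM Z-Phe-Arg-AMC; cathepsin L (liver, 1 nM) with 2 μM Z-Phe-Arg-AMC; recombinant E. coli cathepsin S (0.5 nM) with 20 μM Z-Val-Val-Arg-AMC. Ki via Cheng-Prusoff.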

For experiment [2], the target named is T2, cathepsin K activated from recombinant human procathepsin K (Homo sapiens, UniProt P43235).
T2 construct: purchased Calbiochem 342001; host or cells: E. coli
T2 sequence (P43235 115-329): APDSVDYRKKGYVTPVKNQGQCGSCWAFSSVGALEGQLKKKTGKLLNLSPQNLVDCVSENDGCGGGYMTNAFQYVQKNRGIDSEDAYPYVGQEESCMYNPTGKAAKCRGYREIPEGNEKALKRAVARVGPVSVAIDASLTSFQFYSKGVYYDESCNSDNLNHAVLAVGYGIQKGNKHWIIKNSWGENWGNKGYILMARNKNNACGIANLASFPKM
As to the kind of experiment: Cathepsin K kinetic fluorescence enzyme inhibition assay. As to conditions: selectivity ratio versus calpain I.

The target in experiment [3] is T3, cathepsin B isolated from human liver (Homo sapiens, UniProt P07858).
T3 construct: cathepsin B—isolated from human liver; purchased Calbiochem 219362; host or cells: human liver (tissue isolate)
Description: Cathepsin B kinetic fluorescence enzyme inhibition assay. As to conditions: selectivity ratio versus calpain I. In outline:
as §1

For experiment [4], the target named is T4, calpain-I isolated from human erythrocytes (Homo sapiens, UniProt P07384).
T4 construct: calpain-I—isolated from human erythrocytes; purchased Calbiochem 208713; host or cells: human erythrocytes (tissue isolate)
T4 sequence (P07384 1-714): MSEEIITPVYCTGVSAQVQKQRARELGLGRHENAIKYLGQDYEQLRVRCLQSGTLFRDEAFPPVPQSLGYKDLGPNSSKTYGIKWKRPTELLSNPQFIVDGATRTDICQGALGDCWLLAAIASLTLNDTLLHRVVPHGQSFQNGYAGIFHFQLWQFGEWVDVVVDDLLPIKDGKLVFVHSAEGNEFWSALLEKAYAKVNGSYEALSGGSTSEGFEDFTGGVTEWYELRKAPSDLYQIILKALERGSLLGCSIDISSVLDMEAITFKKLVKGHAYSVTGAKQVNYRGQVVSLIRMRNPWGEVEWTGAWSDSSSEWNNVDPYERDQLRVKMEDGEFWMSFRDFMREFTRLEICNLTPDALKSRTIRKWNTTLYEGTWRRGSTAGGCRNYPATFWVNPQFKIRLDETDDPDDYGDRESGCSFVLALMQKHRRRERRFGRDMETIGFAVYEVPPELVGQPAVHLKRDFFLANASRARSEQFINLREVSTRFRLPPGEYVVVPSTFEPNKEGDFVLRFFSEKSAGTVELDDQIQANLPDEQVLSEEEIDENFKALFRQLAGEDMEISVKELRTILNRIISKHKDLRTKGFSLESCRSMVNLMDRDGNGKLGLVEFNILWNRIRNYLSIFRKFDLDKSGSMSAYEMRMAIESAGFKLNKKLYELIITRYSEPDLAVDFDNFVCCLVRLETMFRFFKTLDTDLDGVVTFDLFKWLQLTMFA
T4 sequence (P04632 1-268 partner): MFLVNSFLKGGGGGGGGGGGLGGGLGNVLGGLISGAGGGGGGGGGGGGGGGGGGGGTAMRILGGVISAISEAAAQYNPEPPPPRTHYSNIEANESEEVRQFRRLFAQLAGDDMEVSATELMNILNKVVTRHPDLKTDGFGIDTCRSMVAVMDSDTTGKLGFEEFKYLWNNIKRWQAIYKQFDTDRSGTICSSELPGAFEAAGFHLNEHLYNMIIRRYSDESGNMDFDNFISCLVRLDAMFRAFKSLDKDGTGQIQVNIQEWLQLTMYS
Description: Calpain I kinetic fluorescence enzyme inhibition assay. As to conditions: apparent Ki from IC50 by Cheng-Prussoff; average of 2 to 4 dose-effect plots.

Experiment [5] addresses T5, cathepsin L isolated from human liver (Homo sapiens, UniProt P07711).
T5 construct: cathepsin L—isolated from human liver; purchased Calbiochem 219402; host or cells: human liver (tissue isolate)
As to the kind of experiment: Cathepsin L kinetic fluorescence enzyme inhibition assay. Conditions: selectivity ratio versus calpain I. In outline: as §1

T5 sequence (P07711 114-333): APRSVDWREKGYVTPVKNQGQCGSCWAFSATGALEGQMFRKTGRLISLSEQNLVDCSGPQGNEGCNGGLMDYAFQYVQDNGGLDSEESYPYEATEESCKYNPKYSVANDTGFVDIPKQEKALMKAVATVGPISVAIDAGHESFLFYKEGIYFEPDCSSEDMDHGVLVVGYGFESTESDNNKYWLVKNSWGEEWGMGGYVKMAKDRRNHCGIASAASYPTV
T1 sequence (P25774 115-331): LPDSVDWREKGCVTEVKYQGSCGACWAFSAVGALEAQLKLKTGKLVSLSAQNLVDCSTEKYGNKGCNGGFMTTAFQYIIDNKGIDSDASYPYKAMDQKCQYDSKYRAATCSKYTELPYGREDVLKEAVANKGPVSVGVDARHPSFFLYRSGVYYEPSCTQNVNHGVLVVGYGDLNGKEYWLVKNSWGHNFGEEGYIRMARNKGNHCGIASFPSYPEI

On to `COc1ccc(CC(NC(=O)c2cccnc2-n2ccc(-c3ccccc3)n2)C(=O)C(N)=O)cc1` (stereo not shown) [Example 80, N-[3-Amino-1-(4-methoxybenzyl)-2,3-dioxopropyl]-2-(3-phenyl-1H-pyrazol-1-yl)nicotinamide], for which, in experiment [1], the “Sel cat. S (Ki(cathepsin S)/Ki(calpain) ratio)” value is listed as “++ (Ki(cathepsin S)/Ki(calpain) ratio of ≧100)”. For the same molecule, the “Sel cat. K (Ki(cathepsin K)/Ki(calpain) ratio)” value in experiment [2] was “+ (10≦Ki(cathepsin K)/Ki(calpain)<30)”. Also, the “Sel cat. B (Ki(cathepsin B)/Ki(calpain) ratio)” value in experiment [3] is recorded as “++ (Ki(cathepsin B)/Ki(calpain) ratio of ≧30)”. Further, in experiment [4], the Ki is 40 to 100 nM. The “Sel cat. L (Ki(cathepsin L)/Ki(calpain) ratio)” value in experiment [5] is “++ (Ki(cathepsin L)/Ki(calpain) ratio of ≧50)”.
The corresponding values for `COc1ccc(CC(NC(=O)c2cccnc2-n2ccc(-c3ccc(F)cc3)n2)C(=O)C(N)=O)cc1` (stereo not shown) [Example 81, N-[3-Amino-1-(4-methoxybenzyl)-2,3-dioxopropyl]-2-[3-(4-fluorophenyl)-1H-pyrazol-1-yl]nicotinamide] are “++ (Ki(cathepsin S)/Ki(calpain) ratio of ≧100)”, “+ (10≦Ki(cathepsin K)/Ki(calpain)<30)”, “+ (10≦Ki(cathepsin B)/Ki(calpain)<30)”, no more than 40 nM and “++ (Ki(cathepsin L)/Ki(calpain) ratio of ≧50)”.
The corresponding values for `NC(=O)C(=O)C(Cc1ccccc1)NC(=O)c1cccnc1-n1ccc(-c2cccc(C(F)(F)F)c2)n1` (stereo not shown) [Example 83, N-(3-Amino-1-benzyl-2,3-dioxopropyl)-2-{3-[3-(trifluoromethyl)phenyl]-1H-pyrazol-1-yl}nicotinamide] are “++ (Ki(cathepsin S)/Ki(calpain) ratio of ≧100)”, “++ (Ki(cathepsin K)/Ki(calpain) ratio of ≧30)”, “+ (10≦Ki(cathepsin B)/Ki(calpain)<30)”, no more than 40 nM and “++ (Ki(cathepsin L)/Ki(calpain) ratio of ≧50)”.
The corresponding values for `NC(=O)C(=O)C(Cc1ccccc1)NC(=O)c1cccnc1-n1ccc(-c2c(F)cccc2F)n1` (stereo not shown) [Example 85, N-[3-Amino-2,3-dioxo-1-(phenylmethyl)propyl]-2-[3-(2,6-difluorophenyl)-1H-pyrazol-1-yl]pyridine-3-carboxamide] are “++ (Ki(cathepsin S)/Ki(calpain) ratio of ≧100)”, “++ (Ki(cathepsin K)/Ki(calpain) ratio of ≧30)”, “+ (10≦Ki(cathepsin B)/Ki(calpain)<30)”, no more than 40 nM and “++ (Ki(cathepsin L)/Ki(calpain) ratio of ≧50)”.
On to `CC(C)c1ccc(-c2ccn(-c3ncccc3C(=O)NC(Cc3ccccc3)C(=O)C(N)=O)n2)cc1` (stereo not shown) [Example 87, N-[3-Amino-2,3-dioxo-1-(phenylmethyl)propyl]-2-{3-[4-(1-methylethyl)phenyl]-1H-pyrazol-1-yl}pyridine-3-carboxamide], for which the “Sel cat. S (Ki(cathepsin S)/Ki(calpain) ratio)” value in experiment [1] is given as “++ (Ki(cathepsin S)/Ki(calpain) ratio of ≧100)”. Moreover, in experiment [2], the “Sel cat. K (Ki(cathepsin K)/Ki(calpain) ratio)” value is “++ (Ki(cathepsin K)/Ki(calpain) ratio of ≧30)”. Besides, in experiment [3], the “Sel cat. B (Ki(cathepsin B)/Ki(calpain) ratio)” value is recorded as “++ (Ki(cathepsin B)/Ki(calpain) ratio of ≧30)”. In addition, the Ki in experiment [4] is no more than 40 nM. For the same molecule, the “Sel cat. L (Ki(cathepsin L)/Ki(calpain) ratio)” value in experiment [5] was “++ (Ki(cathepsin L)/Ki(calpain) ratio of ≧50)”.
The corresponding values for `Cl.NC(=O)C(=O)C(Cc1cccnc1)NC(=O)c1cccnc1-n1ccc(-c2ccccc2)n1` (stereo not shown) [Example 88, N-[3-Amino-2,3-dioxo-1-(pyridin-3-ylmethyl)propyl]-2-(3-phenyl-1H-pyrazol-1-yl)pyridine-3-carboxamide hydrochloride] are “++ (Ki(cathepsin S)/Ki(calpain) ratio of ≧100)”, “++ (Ki(cathepsin K)/Ki(calpain) ratio of ≧30)”, “+ (10≦Ki(cathepsin B)/Ki(calpain)<30)”, 40 to 100 nM and “++ (Ki(cathepsin L)/Ki(calpain) ratio of ≧50)”.
For the molecule `COc1ccccc1-c1ccn(-c2ncccc2C(=O)NC(Cc2ccccc2)C(=O)C(N)=O)n1` (stereo not shown) [Example 90, N-[3-Amino-2,3-dioxo-1-(phenylmethyl)propyl]-2-{3-[2-(methyloxy)phenyl]-1H-pyrazol-1-yl}pyridine-3-carboxamide], the “Sel cat. S (Ki(cathepsin S)/Ki(calpain) ratio)” value in experiment [1] was “++ (Ki(cathepsin S)/Ki(calpain) ratio of ≧100)”. Also, the “Sel cat. K (Ki(cathepsin K)/Ki(calpain) ratio)” value in experiment [2] is on record as “+ (10≦Ki(cathepsin K)/Ki(calpain)<30)”. Moreover, the “Sel cat. B (Ki(cathepsin B)/Ki(calpain) ratio)” value in experiment [3] is “++ (Ki(cathepsin B)/Ki(calpain) ratio of ≧30)”. In addition, in experiment [4], the Ki was no more than 40 nM. Besides, the “Sel cat. L (Ki(cathepsin L)/Ki(calpain) ratio)” value in experiment [5] is reported as “++ (Ki(cathepsin L)/Ki(calpain) ratio of ≧50)”.
With `NC(=O)C(=O)C(Cc1ccccc1)NC(=O)c1cccnc1-n1ccc(-c2cc(F)cc(F)c2)n1` (stereo not shown) [Example 91, N-[3-Amino-2,3-dioxo-1-(phenylmethyl)propyl]-2-[3-(3,5-difluorophenyl)-1H-pyrazol-1-yl]pyridine-3-carboxamide], in experiment [1], the “Sel cat. S (Ki(cathepsin S)/Ki(calpain) ratio)” value is on record as “++ (Ki(cathepsin S)/Ki(calpain) ratio of ≧100)”. Also, in experiment [2], the “Sel cat. K (Ki(cathepsin K)/Ki(calpain) ratio)” value is listed as “+ (10≦Ki(cathepsin K)/Ki(calpain)<30)”. Further, the “Sel cat. B (Ki(cathepsin B)/Ki(calpain) ratio)” value in experiment [3] is “++ (Ki(cathepsin B)/Ki(calpain) ratio of ≧30)”. For the same molecule, the Ki in experiment [4] is no more than 40 nM. Besides, in experiment [5], the “Sel cat. L (Ki(cathepsin L)/Ki(calpain) ratio)” value is “++ (Ki(cathepsin L)/Ki(calpain) ratio of ≧50)”.
`COc1ccc(CC(NC(=O)c2cccnc2-n2ccc(-c3ccccc3F)n2)C(=O)C(N)=O)cc1` (stereo not shown) [Example 92, N-(3-Amino-1-{[4-(methyloxy)phenyl]methyl}-2,3-dioxopropyl)-2-[3-(2-fluorophenyl)-1H-pyrazol-1-yl]pyridine-3-carboxamide]: in experiment [1], the “Sel cat. S (Ki(cathepsin S)/Ki(calpain) ratio)” value was “++ (Ki(cathepsin S)/Ki(calpain) ratio of ≧100)”. Also, the “Sel cat. K (Ki(cathepsin K)/Ki(calpain) ratio)” value in experiment [2] is “+ (10≦Ki(cathepsin K)/Ki(calpain)<30)”. Moreover, the “Sel cat. B (Ki(cathepsin B)/Ki(calpain) ratio)” value in experiment [3] is “++ (Ki(cathepsin B)/Ki(calpain) ratio of ≧30)”. Moreover, the Ki in experiment [4] lay within 40 to 100 nM. Further, the “Sel cat. L (Ki(cathepsin L)/Ki(calpain) ratio)” value in experiment [5] was “++ (Ki(cathepsin L)/Ki(calpain) ratio of ≧50)”.
Consider `Cc1ccccc1-c1ccn(-c2ncccc2C(=O)NC(Cc2ccccc2)C(=O)C(N)=O)n1` (stereo not shown) [Example 93, N-[3-Amino-2,3-dioxo-1-(phenylmethyl)propyl]-2-[3-(2-methylphenyl)-1H-pyrazol-1-yl]pyridine-3-carboxamide], for which, in experiment [1], the “Sel cat. S (Ki(cathepsin S)/Ki(calpain) ratio)” value is listed as “++ (Ki(cathepsin S)/Ki(calpain) ratio of ≧100)”. Further, the “Sel cat. K (Ki(cathepsin K)/Ki(calpain) ratio)” value in experiment [2] is listed as “+ (10≦Ki(cathepsin K)/Ki(calpain)<30)”. The “Sel cat. B (Ki(cathepsin B)/Ki(calpain) ratio)” value in experiment [3] is on record as “++ (Ki(cathepsin B)/Ki(calpain) ratio of ≧30)”. For the same molecule, the Ki in experiment [4] was no more than 40 nM. In addition, in experiment [5], the “Sel cat. L (Ki(cathepsin L)/Ki(calpain) ratio)” value is reported as “++ (Ki(cathepsin L)/Ki(calpain) ratio of ≧50)”.
The corresponding values for `NC(=O)C(=O)C(Cc1ccccc1)NC(=O)c1cccnc1-n1ccc(-c2ccc(F)cc2F)n1` (stereo not shown) [Example 94, N-[3-Amino-2,3-dioxo-1-(phenylmethyl)propyl]-2-[3-(2,4-difluorophenyl)-1H-pyrazol-1-yl]pyridine-3-carboxamide] are “++ (Ki(cathepsin S)/Ki(calpain) ratio of ≧100)”, “+ (10≦Ki(cathepsin K)/Ki(calpain)<30)”, “++ (Ki(cathepsin B)/Ki(calpain) ratio of ≧30)”, 40 to 100 nM and “++ (Ki(cathepsin L)/Ki(calpain) ratio of ≧50)”.

For the origin of these results see patent US7728012B2, “Carboxamide compounds and their use as calpain inhibitors” (Abbott GmbH & Co. KG, priority 2006, dated 2010).
